Measurements as given in publication PMC11418636, “Evaluating the potential of non‐immunosuppressive cyclosporin analogs for targeting Toxoplasma gondii cyclophilin: Insights from structural studies” (Protein Science : A Publication of the Protein Society, 2024).
Where two headings read alike, the source gives them in different places.

Assays:
TgCyp23 [1] = target: T1, TgCyp23 (Toxoplasma gondii, UniProt B9PS61); assay: Stopped-flow rapid kinetics of binding to TgCyp23; details: association rate constant, 20°C, pH 7.4, 0.5 μM TgCyp23, ligands 1 to 7 μM
Protocol: Stopped‐flow experiments were performed on an SX‐18 stopped‐flow apparatus (Applied Photophysics, Leatherhead, UK) at 20°C in 50 mM Hepes, 150 mM NaCl, 1 mM DTT (pH 7.4). Fluorescence emission was measured using a 320 nm cutoff filter (λex = 280 nm). The concentration of TgCyp23 after mixing was 0.5 μM, and the concentration of ligands after mixing ranged from 1 to 7 μM. For each trace, data from 4 to 6 injections were averaged and fitted with a single exponential function, excluding data points in the dead‐time of the stopped flow (<2 ms).

TgCyp23 [2] = target: T1, TgCyp23; assay: Circular dichroism (CD) thermal denaturation of TgCyp23 with ligands; assay type: binding; details: melting temperature of TgCyp23 with saturating ligand, 224 nm; TgCyp23 alone 52 ± 1
Protocol: Circular dichroism (CD) assays were conducted on a Jasco J‐1500 spectropolarimeter equipped with a Peltier temperature controller following the protocol described in (Bombardi et al., [2020]; Favretto et al., [2023]; Trande et al., [2019]; ). Briefly, denaturation profiles in the presence of saturating concentrations of ligands were obtained by monitoring the loss of secondary structure of TgCyp23 at 224 nm in the temperature range of 15–100°C, with a scan rate of 1.5°C/min. The protein concentration was 0.2 mg/mL, and the buffer used was 50 mM HEPES at pH 8.0 with 100 mM NaCl.

TgCyp23 [3] = target: T1, TgCyp23; assay: Differential scanning calorimetry (DSC) of TgCyp23 with ligands; assay type: binding; details: melting temperature of 70 μM TgCyp23 with ligand; TgCyp23 alone 49 ± 1
Protocol: Differential scanning calorimetry (DSC) experiments were conducted using a nano‐DSC (TA instrument) with a cell volume of 300 μL (Favretto et al., [2023]). […] Data were fitted according to a two‐state model using NanoAnalyze software (TA instrument).

CypA = details: Ptak et al., 2008, read-out: Ki, inhibition of CypA PPIase activity, cited from earlier work
TgCyp23 [4] = target: T1, TgCyp23; assay: PPIase inhibition, protease-coupled assay with AAPF peptide; assay type: biochemical; details: PPIase activity, TgCyp23 7 nM, ligand 0 to 30 nM, 10 min on ice; error SEM of triplicate
Protocol: PPIase activity was determined using the synthetic peptide N‐succinyl‐Ala‐Ala‐Pro‐Phe‐p‐nitroanilide (AAPF) based on the protease‐coupled assay as described in (Favretto et al., [2023]; Kofron et al., [1991]). In inhibition assays, TgCyp23 (7 nM) was incubated for 10 min on ice in the presence of increasing concentrations of the three analogs, ranging from 0 to 30 nM, before the addition of the AAPF peptide. In all experiments, the slope of the catalyzed reaction was corrected for spontaneous thermal cis–trans isomerization in the presence of chymotrypsin alone.
The residual enzymatic activity was estimated from the initial velocities of each catalyzed reaction and expressed as a percentage (%) of the original enzymatic activity (Astegno et al., [2017]). Residual enzymatic activities were plotted against ligand concentrations, and the obtained curve was analyzed to determine the IC50 value for each tested ligand. The experiments were repeated in triplicate, and the error was estimated as the standard error of the mean (SEM).

TgCyp23 [5] = target: T1, TgCyp23; assay: Isothermal titration calorimetry (ITC) binding to TgCyp23; details: 20°C, 50 mM HEPES pH 8.0, 100 mM NaCl, error SEM of triplicate
Protocol: Isothermal titration calorimetry (ITC) experiments were performed on a PEAQ‐ITC instrument from MicroCal (Northampton, MA) as previously described (Bombardi et al., [2022]; Conter et al., [2021]; Favretto et al., [2023]). Stock solutions of dhCsA, NIM811, and Alisporivir were prepared in 100% EtOH and successively diluted in a buffer of 50 mM HEPES, pH 8.0, 100 mM NaCl at a final concentration of 8 μM. […] The analog solutions were titrated with 2 μL (total 19 injections) of a 66 μM TgCyp23 solution supplemented with 0.1% EtOH. All the experiments were executed at an operating temperature of 20°C and a time gap of 150 s between each injection. Protein and ligand samples were filtered and degassed thoroughly before the experiments. Reference experiments were performed in the absence of a ligand or a protein, and the heat of dilution was subtracted from each experiment. Each titration set was repeated as a triplicate and the error was estimated as the SEM. The data were analyzed using the software MicroCal Origin, and the apparent dissociation constants Kd, the enthalpy changes (ΔH), and entropy changes (ΔS) were obtained.

T1 sequence (B9PS61 entry or part of it): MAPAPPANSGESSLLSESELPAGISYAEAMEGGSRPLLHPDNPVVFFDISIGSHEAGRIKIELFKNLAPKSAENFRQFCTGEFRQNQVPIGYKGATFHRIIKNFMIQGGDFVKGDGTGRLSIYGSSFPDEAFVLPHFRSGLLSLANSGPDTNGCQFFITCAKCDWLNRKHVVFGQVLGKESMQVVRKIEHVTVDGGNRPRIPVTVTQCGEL

SMILES: C/C=C/C[C@@H](C)[C@@H](O)[C@H]1C(=O)N[C@@H](CC)C(=O)N(C)[C@H](C)C(=O)N(CC)[C@@H](C(C)C)C(=O)N[C@@H](C(C)C)C(=O)N(C)[C@@H](CC(C)C)C(=O)N[C@@H](C)C(=O)N[C@H](C)C(=O)N(C)[C@@H](CC(C)C)C(=O)N(C)[C@@H](CC(C)C)C(=O)N(C)[C@@H](C(C)C)C(=O)N1C [Alisporivir, MeAla-3-EtVal-4-Cyclosporin]
- kon (TgCyp23 [1]): 3.97e+06 ± 210000 M⁻¹ s⁻¹
- Tm (CD) (TgCyp23 [2]): 59 ± 1 °C
- Tm (DSC) (TgCyp23 [3]): 55 ± 1 °C
- Ki (CypA; ref Coelmont et al., 2010, de Wilde et al., 2013, Gallay & Lin, 2013): 0.34 nM
- IC50 (TgCyp23 [4]): 0.77 ± 0.01 nM
- Kd (TgCyp23 [5]): 15 ± 3 nM

SMILES: C/C=C/C[C@@H](C)[C@@H](O)[C@H]1C(=O)N[C@@H](CC)C(=O)N(C)CC(=O)N(C)[C@@H]([C@@H](C)CC)C(=O)N[C@@H](C(C)C)C(=O)N(C)[C@@H](CC(C)C)C(=O)N[C@@H](C)C(=O)N[C@H](C)C(=O)N(C)[C@@H](CC(C)C)C(=O)N(C)[C@@H](CC(C)C)C(=O)N(C)[C@@H](C(C)C)C(=O)N1C [NIM811, MeIle-4-Cyclosporin]
- kon (TgCyp23 [1]): 2.77e+06 ± 150000 M⁻¹ s⁻¹
- Tm (CD) (TgCyp23 [2]): 58 ± 1 °C
- Tm (DSC) (TgCyp23 [3]): 56 ± 1 °C
- Ki (CypA; ref Schiene-Fischer et al., 2022): 2.1 nM
- IC50 (TgCyp23 [4]): 0.85 ± 0.03 nM
- Kd (TgCyp23 [5]): 43 ± 10 nM

SMILES: CCCC[C@@H](C)[C@@H](O)[C@H]1C(=O)N[C@@H](CC)C(=O)N(C)CC(=O)N(C)[C@@H](CC(C)C)C(=O)N[C@@H](C(C)C)C(=O)N(C)[C@@H](CC(C)C)C(=O)N[C@@H](C)C(=O)N[C@H](C)C(=O)N(C)[C@@H](CC(C)C)C(=O)N(C)[C@@H](CC(C)C)C(=O)N(C)[C@@H](C(C)C)C(=O)N1C [dhCsA, Dihydrocyclosporin A]
- kon (TgCyp23 [1]): 1.85e+06 ± 110000 M⁻¹ s⁻¹
- Tm (CD) (TgCyp23 [2]): 57 ± 1 °C
- Tm (DSC) (TgCyp23 [3]): 53 ± 1 °C
- IC50 (TgCyp23 [4]): 1.2 ± 0.2 nM
- Kd (TgCyp23 [5]): 200 ± 92 nM
